Legend:
Format in all cases: in vivo
Botrytis cinerea = assay: Test A: preventive spray on tomato seedlings, Botrytis cinerea (gray mold), visual disease rating; conditions: 100 = 100% disease control, 0 = no control relative to controls, unmarked values
From the text: (§1) General protocol for preparing test suspensions for Tests A-E: the test compounds were first dissolved in acetone in an amount equal to 3% of the final volume and then suspended at the desired concentration (in ppm) in acetone and purified water (50/50 mix by volume) containing 250 ppm of the surfactant Trem® 014 (polyhydric alcohol esters). The resulting test suspensions were then used in Tests A-E. Compounds were sprayed with either a 40 ppm or 10 ppm (*) test suspension to the point of run-off on the test plants which is the equivalent of a rate of 160 g ai/ha or 40 g ai/ha, respectively.
The test suspension was sprayed to the point of run-off on tomato seedlings. The following day the seedlings were inoculated with a spore suspension of Botrytis cinerea (the causal agent of gray mold on many crops) and incubated in a saturated atmosphere at 20° C. for 48 h, and moved to a growth chamber at 27° C. for 2 days, after which time visual disease ratings were made.
(§2) Results for Tests A-E are given in Table A. In the Table, a rating of 100 indicates 100% disease control and a rating of 0 indicates no disease control (relative to the controls). A dash (-) indicates no test results.

[1] = system: Stagonospora nodorum (also known as Septoria nodorum); assay: Test B: preventive spray on wheat seedlings, Stagonospora nodorum (wheat glume blotch), visual disease rating; conditions: 100 = 100% disease control, 0 = no control, unmarked values
How it was run: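 Compounds in acetone/water (50/50) with 250 ppm Trem 014 surfactant were sprayed to run-off at 40 ppm (160 g ai/ha) or 10 ppm (40 g ai/ha). Seedlings were inoculated with S. nodorum spores the next day, then held 48 h saturated at 20 °C and 6 days in a growth chamber at 20 °C. Visual rating as % disease control vs untreated.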

Septoria tritici = assay: Test C: preventive spray on wheat seedlings, Septoria tritici (wheat leaf blotch), visual disease rating; conditions: 100 = 100% disease control, 0 = no control, unmarked values
From the text: as §1
The test suspension was sprayed to the point of run-off on wheat seedlings. The following day the seedlings were inoculated with a spore suspension of Septoria tritici (the causal agent of wheat leaf blotch) and incubated in a saturated atmosphere at 24° C. for 48 h, and then moved to a growth chamber at 20° C. for 21 days, after which time visual disease ratings were made.
as §2

[2] = system: Puccinia recondite f. sp. tritici; assay: Test D: preventive spray on wheat seedlings, Puccinia recondite f. sp. tritici (wheat leaf rust), visual disease rating; conditions: 100 = 100% disease control, 0 = no control, unmarked values
How it was run: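 Wheat seedlings sprayed to run-off with 40 ppm (160 g ai/ha) or 10 ppm (40 g ai/ha) suspension in acetone/water with 250 ppm surfactant, inoculated next day with leaf rust spores. After 24 h saturated at 20 °C then 6 days at 20 °C, visual rating of disease control (0–100) relative to controls.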

[3] = system: Erysiphe graminis f. sp. tritici; assay: Test E: preventive spray on wheat seedlings, Erysiphe graminis f. sp. tritici (wheat powdery mildew), visual disease rating; conditions: 100 = 100% disease control, 0 = no control, unmarked values
How it was run: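 Wheat seedlings were sprayed to run-off with 40 or 10 ppm suspension (160 or 40 g ai/ha) and dusted with spores the next day. They were then kept 8 days at 20 °C. Disease was rated visually as % control relative to untreated controls (0–100).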

Molecule | Test A disease control rating (Botrytis cinerea) [%] | Test B disease control rating [1] [%] | Test C disease control rating (Septoria tritici) [%] | Test D disease control rating [2] [%] | Test E disease control rating [3] [%]
3-(trifluoromethyl)-N-[2-[6-[3-(trifluoromethyl)-1H-pyrazol-1-yl]-3-pyridazinyl]phenyl]-2-pyridinecarboxamide [Compound 59] | 100 | 100 | 100 | 100 | 99
O=C(Nc1ccccc1-c1ccc(C2=NOC(c3ccc(F)cc3)C2)nc1)c1ncccc1C(F)(F)F (racemic) [compound 6] | 99 | 100 | 99 | 100 | 0
O=C(Nc1ccccc1-c1ccc(C2=NOC(c3cccc(F)c3)C2)nc1)c1ncccc1C(F)(F)F (racemic) [compound 17] | 98 | 100 | 100 | 99 | 0
COc1cccc(C2CC(c3ccc(-c4ccccc4NC(=O)c4ncccc4C(F)(F)F)cn3)=NO2)c1 (racemic) [compound 18] | 96 | 100 | 100 | 99 | 0
O=C(Nc1ccccc1-c1ccc(C2=NOC(c3cc(F)cc(F)c3)C2)nc1)c1ncccc1C(F)(F)F (racemic) [compound 19] | 98 | 100 | 100 | 100 | 87
COc1cc(OC)cc(C2CC(c3ccc(-c4ccccc4NC(=O)c4ncccc4C(F)(F)F)cn3)=NO2)c1 (racemic) [compound 20] | 89 | 100 | 96 | 99 | 0
Cn1cc(C(=O)Nc2ccccc2-c2ccc(-n3cc(-c4cccc(F)c4)cn3)nc2)c(C(F)F)n1 [compound 5] | 100 | 100 | 100 | 100 | 99
Cn1cc(C(=O)Nc2ccccc2-c2ccc(-n3cc(-c4ccccc4F)cn3)nc2)c(C(F)F)n1 [compound 7] | 100 | 100 | 100 | 100 | 97
COc1ccccc1-c1cnn(-c2ccc(-c3ccccc3NC(=O)c3cn(C)nc3C(F)F)cn2)c1 [compound 8] | 99 | 99 | 99 | 100 | 99
COc1cccc(-c2cnn(-c3ccc(-c4ccccc4NC(=O)c4cn(C)nc4C(F)F)cn3)c2)c1 [compound 9] | 100 | 100 | 100 | 100 | 100
COc1cc(OC)cc(-c2cnn(-c3ccc(-c4ccccc4NC(=O)c4cn(C)nc4C(F)F)cn3)c2)c1 [compound 10] | 100 | 100 | 100 | 100 | 97
Cn1cc(C(=O)Nc2ccccc2-c2ccc(-n3ccc(Br)n3)nc2)c(C(F)F)n1 [compound 11] | 100 | 100 | 100 | 100 | 99
O=C(Nc1ccccc1-c1ccc(-n2ccc(Br)n2)nc1)c1ncccc1C(F)(F)F [compound 13] | 98 | 98 | 100 | 100 | 99
Cc1ccc(-c2ccc(-c3ccccc3NC(=O)c3cn(C)nc3C(F)F)cn2)s1 [compound 21] | 99 | 97 | 81 | 100 | 43
Cc1ccc(-c2ccc(-c3ccccc3NC(=O)c3cn(C)nc3C(F)F)cn2)o1 [compound 22] | 94 | 0 | 33 | 100 | 21
O=C(Nc1ccccc1-c1ccc(-n2ccc(C(F)(F)F)n2)nc1)c1ncccc1Cl [compound 23] | 20 | 0 | 100 | 96 | 99
O=C(Nc1ccccc1-c1ccc(-n2ccc(C(F)(F)F)n2)nc1)c1nccnc1C(F)(F)F [compound 24] | 99 | 100 | 100 | 100 | 100
O=C(Nc1ccccc1-c1ccc(-n2ccc(C(F)(F)F)n2)nc1)c1nccnc1Cl [compound 25] | 99 | 82 | 100 | 98 | 90
O=C(Nc1ccccc1-c1ccc(-n2ccc(C(F)(F)F)n2)nc1)c1ncccc1C(F)(F)F [compound 26] | 88 | 90 | 100 | 99 | 100
O=C(Nc1ccccc1-c1ccc(-n2cc(-c3cccc(F)c3)cn2)nc1)c1ncccc1C(F)(F)F [compound 27] | 89 | 99 | 100 | 98 | 96
O=C(Nc1ccccc1-c1cnc(-n2ccc(C(F)(F)F)n2)c(Cl)c1)c1nccnc1Cl [compound 96] | 0 | 60 |  | 99 | 96
Cn1cc(C(=O)Nc2ccccc2-c2cnc(-n3ccc(C(F)(F)F)n3)c(Cl)c2)c(C(F)(F)F)n1 [compound 97] | 0 | 87 |  | 100 | 99

Source: patent publication US9730447B2, “Fungicidal amides” (E I DU PONT DE NEMOURS AND COMPANY, priority 2013, dated 2017)
